Measurements as given in US20220235006A1, “PYRIDINE DERIVATIVES AS TMEM16A MODULATORS FOR USE IN THE TREATMENT OF RESPIRATORY CONDITIONS” (TMEM16A LIMITED, priority 2019, published 2022).
pEC50: −log10 of the molar value. Values after ≈ are worked out from the molar mass of the structure shown.

Assays:
[1] = molecular target: T1, human TMEM16A (TMEM16Aabc variant) (Homo sapiens, UniProt Q5XXA6, DEL476-501); assay: Automated whole-cell patch clamp (Qpatch) TMEM16A potentiator assay in recombinant FRT cells; type: cell-based; details: for activation at 3.33 µM: percentage increase of baseline TMEM16A current, minimum n = 2, read-out: % Potentiation @ 3.33 uM Avg; for pEC50: minimum n = 2
T1 sequence (Q5XXA6 with tags, fused parts or gaps isoform Q5XXA6-5 DEL539-564): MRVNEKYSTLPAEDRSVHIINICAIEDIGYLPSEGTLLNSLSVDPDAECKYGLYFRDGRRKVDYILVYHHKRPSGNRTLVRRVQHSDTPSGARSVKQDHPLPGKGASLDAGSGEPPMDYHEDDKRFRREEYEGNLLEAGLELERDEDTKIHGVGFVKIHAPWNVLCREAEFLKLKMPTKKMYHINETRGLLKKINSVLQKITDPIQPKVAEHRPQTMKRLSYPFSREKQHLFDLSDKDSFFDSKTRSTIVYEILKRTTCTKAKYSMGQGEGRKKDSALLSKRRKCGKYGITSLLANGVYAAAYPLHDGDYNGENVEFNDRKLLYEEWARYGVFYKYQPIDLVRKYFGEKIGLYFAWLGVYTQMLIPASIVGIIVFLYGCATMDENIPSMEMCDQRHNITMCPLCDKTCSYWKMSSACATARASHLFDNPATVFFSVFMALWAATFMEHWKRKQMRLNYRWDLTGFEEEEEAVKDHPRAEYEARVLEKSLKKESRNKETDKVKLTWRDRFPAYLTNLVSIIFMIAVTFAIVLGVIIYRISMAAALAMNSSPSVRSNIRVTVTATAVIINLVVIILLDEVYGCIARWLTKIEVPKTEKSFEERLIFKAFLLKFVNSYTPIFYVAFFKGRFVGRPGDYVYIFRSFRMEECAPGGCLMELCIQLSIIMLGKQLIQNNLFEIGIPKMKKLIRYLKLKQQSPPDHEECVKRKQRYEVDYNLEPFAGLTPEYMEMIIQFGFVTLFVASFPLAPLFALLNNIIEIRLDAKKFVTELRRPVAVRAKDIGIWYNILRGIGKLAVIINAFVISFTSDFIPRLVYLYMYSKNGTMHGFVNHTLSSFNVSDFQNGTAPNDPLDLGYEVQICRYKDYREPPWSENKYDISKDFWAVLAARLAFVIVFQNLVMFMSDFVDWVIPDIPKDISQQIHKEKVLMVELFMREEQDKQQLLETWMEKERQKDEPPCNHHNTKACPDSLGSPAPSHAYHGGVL
Procedure: Automated Whole-Cell Patch Clamp Assay to Detect TMEM16A Activity in Recombinant Cells
Fisher rat thyroid (FRT) cells stably expressing human TMEM16A (TMEM16Aabc variant; Dr Luis Galietta, Insituto Giannina, Italy) were cultured in T-75 flasks in Hams F-12 media with Coon's modification (Sigma) supplemented with 10% (v/v) foetal bovine serum, penicillin-streptomycin (10,000 U/mL/10000 μg/mL), G-418 (750 μg/mL), L-glutamine (2 mM) and sodium bicarbonate solution (7.5% v/v). At ˜90% confluence cells were harvested for experiments by detachment with a 2:1 (v/v) mixture of Detachin (BMS Biotechnology) and 0.25% (w/v) trypsin-EDTA.
FRT-TMEM16A cells were whole-cell patch clamped using an automated planar patch clamp system (Qpatch, Sophion). Briefly, once high resistance (GOhm) seals were established between the cells and the planar recording array the patch was ruptured using suction pulses to establish the whole-cell recording configuration of the patch clamp technique. The assay employed the following solutions (all reagents Sigma): Intracellular solution (mM): N-methyl-D-glucamine 130, CaCl2 18.2, MgCl2 1, HEPES 10, EGTA 10, BAPTA 20, Mg-ATP 2, pH 7.25, 325 mOsm with sucrose.
Extracellular solution (mM): N-methyl-D-glucamine 130, CaCl2 2, MgCl2 1, HEPES 10, pH 7.3, 320 mOsm with sucrose.
The intracellular solution buffers intracellular calcium at levels required to give ˜20% activation of the maximal TMEM16A mediated current (E020 for calcium ions). Cells were voltage clamped at a holding potential of −70mV and a combined voltage step (to +70 mV)/ramp (−90 my to +90 mV) was applied at 0.05 Hz. After a period of current stabilisation test compounds, solubilised in 100% (v/v) DMSO and subsequently diluted into extracellular solution, were applied to generate a cumulative concentration response curve. Each concentration of test compound was incubated for 5 minutes before addition of the next concentration. After the final concentration was tested a supramaximal concentration of either a known active positive modulator or the TMEM16A inhibitor, CaCCinhA01 (Del La Fuente et al, 2008) was added to define the upper and lower limits of the assay.
Compound activity was quantified by measuring the increase in current upon compound addition and expressing this as a percentage increase of baseline TMEM16A current level.
Peak TMEM16A current at +70 mV was plotted as a function of time over the assay period. Baseline current (IBL) was measured after a period of stabilisation. The increase in current for each compound addition was determined by taking the peak current during the incubation period and subtracting the current from the previous recording period and then expressing this as a percentage of the baseline current (% potentiation). For test compound concentration 1 in FIG. 1 this is:
For each additional concentration tested the increase in current was determined by subtracting the current from the previous incubation period and normalising the baseline value—for test concentration 2 in FIG. 1 this is:
The values for each test concentration were plotted as a cumulative function of concentration eg. for test concentration two this would be the sum of the peak changes measured during concentration one plus concentration two.

[2] = Kinetic solubility determination (high throughput); type: physicochemical; details: kinetic from dmso stock, sterile water, 5% DMSO, room temperature
Procedure: Test compounds (10 μL; 20 mM DMSO solution) were added to sterile water (190 μL) in triplicate and shaken at 300 rpm at room temperature. After 90 min. the test compounds were filtered by centrifuge (5 min. at 3000 rpm) to obtain the aqueous filtrate. Acetonitrile (20 μL) was dispensed into clean 96-well UV/VIS analysis plate and aqueous filtrate (80 μL) added and the plate analysed for test compound concentration using a Molecular Devices SPECTRAmax® plus microplate reader at the following wavelengths: (280, 300, 320, 340, 360, 800 nm). […] The diluted filtrate (80 μL) was then added to acetonitrile (20 μL) and the plate analysed. as previously.

[3] = Log D (pH7.4 shake flask); type: physicochemical; details: pH 7.4; 1-octanol/phosphate buffer shake flask; read-out: mLogD (pH 7.4)
Procedure: Phosphate buffer (1 M) was diluted to 20 mM with deionised water and adjusted to pH 7.4 with phosphoric acid or sodium hydroxide. 1-octanol and phosphate buffer (20 mM) were saturated overnight by tumbling. The two phases were separated using a separation funnel. 5 μL of 5 mM compound cassette was added to 495 μL of octanol-saturated buffer and 495 μL buffer saturated octanol in a 96-well plate (top concentration 50 μM). Plate was shaken for 1 h and centrifuged at 25° C. for 5 min. 200 μL of each phase was transferred to a separate plate. The octanol layer was sampled first to avoid cross contamination. 5 μL of the solutions were transferred to 495 μL of quench solution* (max concentration 0.5 μM). In addition, 40 μL of buffer solution was added to 360 μL of quench solvent (max concentration 5 μM). Samples were analysed by LC-MS/MS. Benchmarking against a calibration curve for each compound and with reference to the control compounds sulpride, diclofenac, chlorpromazine and tamoxifen. *Quench solution was a 1:3:1 mixture (v/v/v) of Acetonitrile containing 0.1% formic acid and imipramine/labetalol, 200 nM:Acetonitrile:Water.

activation at 3.33 µM [1] [%] | solubility kinetic at 90 min [2] [µg/mL] | logD [3] | pEC50 [1] | Compound
112 | 327 (≈ 657 µM) | 2.7 |  | CC(C)(C#N)NC(=O)c1cc(NC(=O)Cc2cc(O)c(C(C)(C)CN3CCOCC3)cc2F)ccn1 [Example 2.5, N-(1-Cyano-1-methyl-ethyl)-4-[[2-[4-(1,1-dimethyl-2-morpholino-ethyl)-2-fluoro-5-hydroxy-phenyl]acetyl]amino]pyridine-2-carboxamide]
200 |  | > 4.1 | 7.43 | CC(C)(C#N)NC(=O)c1cc(NC(=O)Cc2cc(O)c(C(C)(C)C)cc2F)ccn1 [Example 1.4]
186 | 29 (≈ 69 µM) | 3.8 | 7.54 | [2H]c1c(O)c(C(C([2H])([2H])[2H])(C([2H])([2H])[2H])C([2H])([2H])[2H])cc(F)c1CC(=O)Nc1ccnc(C(=O)NC2(C#N)CC2)c1 [Example 4, N-(1-Cyanocyclopropyl)-4-[[2-[2-deuterio-6-fluoro-3-hydroxy-4-[2,2,2-trideuterio-1,1-bis(trideuteriomethyl)ethyl]phenyl]acetyl]amino]pyridine-2-carboxamide]
356 | 42 (≈ 102 µM) | > 4.2 | 6.82 | CC(C)(C)NC(=O)c1cc(NC(=O)Cc2cc(O)c(C(C)(C)C#N)cc2F)ccn1 [Example 2.2, N-tert-Butyl-4-[[2-[4-(1-cyano-1-methyl-ethyl)-2-fluoro-5-hydroxy-phenyl]acetyl]amino]pyridine-2-carboxamide]
72.1 | 69 (≈ 149 µM) | 2.9 | 7.28 | CC(C)(C#N)c1cc(F)c(CC(=O)Nc2ccnc(C(=O)NC3(C(F)(F)F)CC3)c2)cc1O [Example 2.3, 4-[[2-[4-(1-Cyano-1-methyl-ethyl)-2-fluoro-5-hydroxy-phenyl]acetyl]amino]-N-[1-(trifluoromethyl)cyclopropyl]pyridine-2-carboxamide]
195 | 44 (≈ 91.3 µM) | > 4.2 | 7.44 | CC1(NC(=O)c2cc(NC(=O)Cc3cc(O)c(C(C)(C)CO)cc3Cl)ccn2)CC(F)(F)C1 [Example 15.2, 4-[[2-[2-Chloro-5-hydroxy-4-(2-hydroxy-1,1-dimethyl-ethyl)phenyl]acetyl]amino]-N-(3,3-difluoro-1-methyl-cyclobutyl)pyridine-2-carboxamide]
248 |  | > 4.2 | 7.42 | CC1(NC(=O)c2cc(NC(=O)Cc3cc(O)c(C(C)(C)C)cc3F)ccn2)CC1 [Example 1, 4-[[2-(4-tert-Butyl-2-fluoro-5-hydroxy-phenyl)acetyl]amino]-N-(1-methylcyclopropyl)pyridine-2-carboxamide]
353 |  | 3.9 | 6.88 | CC(C)(C#N)NC(=O)c1cc(NC(=O)Cc2cc(O)c(C(C)(C)C)cc2F)c(F)cn1 [Example 3, 4-[[2-(4-tert-Butyl-2-fluoro-5-hydroxy-phenyl)acetyl]amino]-N-(1-cyano-1-methyl-ethyl)-5-fluoro-pyridine-2-carboxamide]
434 |  | 4.2 | 7.52 | O=C(Cc1cc(O)c(C2(C(F)(F)F)CCO2)cc1F)Nc1ccnc(C(=O)NC2(C(F)(F)F)CC2)c1 (stereo not drawn) [Example 2.10, 4-[[2-[2-Fluoro-5-hydroxy-4-[2-(trifluoromethyl)oxetan-2-yl]phenyl]acetyl]amino]-N-[1-(trifluoromethyl)cyclopropyl]pyridine-2-carboxamide]
356 |  | 3.7 | 7.16 | CC(C)(C)NC(=O)c1cc(NC(=O)Cc2cc(O)c(C3(C#N)CC3)cc2F)ccn1 [Example 2.4, N-tert-Butyl-4-[[2-[4-(1-cyanocyclopropyl)-2-fluoro-5-hydroxy-phenyl]acetyl]amino]pyridine-2-carboxamide]
122 | 99 (≈ 206 µM) |  | 7.57 | CC(C)(C#N)NC(=O)c1cc(NC(=O)Cc2cc(O)c(C3(C(F)(F)F)CCO3)cc2F)ccn1 (stereo not drawn) [Example 2.14, N-(1-Cyano-1-methyl-ethyl)-4-[[2-[2-fluoro-5-hydroxy-4-[2-(trifluoromethyl)oxetan-2-yl]phenyl]acetyl]amino]pyridine-2-carboxamide]
202 |  | > 4 | 7.60 | CC(C)(C)c1cc(F)c(CC(=O)Nc2ccnc(C(=O)NC3(C(F)(F)F)CC3)c2)cc1O [Example 1.7]
310 |  | > 4 | 7.28 | CC(C)(C#N)NC(=O)c1cc(NC(=O)Cc2cc(O)c(C(C)(C)C)cc2Cl)ccn1 [Example 10, 4-[[2-(4-tert-Butyl-2-chloro-5-hydroxy-phenyl)acetyl]amino]-N-(1-cyano-1-methyl-ethyl)pyridine-2-carboxamide]
413 |  |  | 6.55 | O=C(Cc1cc(O)c(C2(CO)CCOCC2)cc1F)Nc1ccnc(C(=O)NC2(C(F)(F)F)CC2)c1 [Example 2.15, 4-[[2-[2-Fluoro-5-hydroxy-4-[4-(hydroxymethyl)tetrahydropyran-4-yl]phenyl]acetyl]amino]-N-[1-(trifluoromethyl)cyclopropyl]pyridine-2-carboxamide]
